Data reported in ChEMBL document CHEMBL5321282, “Design, Synthesis, and Biological Evaluation of Esculetin-Furoxan-DEAC Ternary Hybrids for Anti-Triple Negative Breast Cancer” (J Med Chem, 2023).
pIC50: −log10 of the molar value. Activity calls are given as the source filed them. No cut-off for these calls is given here.

What was measured:
MDA-MB-231 [1] = test: Induction of cell cycle arrest in human MDA-MB-231 cells assessed as accumulation of cells at G2/M phase at 5 to 20 nM measured after 24 hrs by PI staining by flow cytometric analysis (Rvb =11.70%); type: functional; conditions: dose 5-20 nM
MDA-MB-231 [2] = test: Induction of cell cycle arrest in human MDA-MB-231 cells assessed as accumulation of cells at G2 phase at 5 nM measured after 24 hrs by PI staining by flow cytometric analysis (Rvb =18.1%); type: functional
[3] = Toxicity in BALB/C mouse xenografted with human MDA-MB-231 cells assessed as spleen damage at 2.5 to 5 mg/kg, ip administered every 2 days measured after 3 weeks by H and E staining based analysis; type: organism-based; conditions: in vivo, 504 h, dose 2.5-5 mg/kg
MDA-MB-231 [4] = test: Induction of cell cycle arrest in human MDA-MB-231 cells assessed as accumulation of cells at G2 phase at 10 nM measured after 24 hrs by PI staining by flow cytometric analysis (Rvb =18.1%); type: functional
[5] = Toxicity in BALB/C mouse xenografted with human MDA-MB-231 cells assessed as liver damage at 2.5 to 5 mg/kg, ip administered every 2 days measured after 3 weeks by H and E staining based analysis; type: organism-based; conditions: in vivo, 504 h, dose 2.5-5 mg/kg
MDA-MB-231 [6] = test: Induction of cell cycle arrest in human MDA-MB-231 cells assessed as accumulation of cells at G1 phase at 20 nM measured after 24 hrs by PI staining based flow cytometric analysis (Rvb =58%); type: functional
MDA-MB-231 [7] = test: Antiproliferative activity against human MDA-MB-231 cells assessed as inhibition of cell growth measured after 48 hrs by MTT assay; type: functional, cell-based; conditions: MDA-MB-231, 48 h
[8] = Selectivity index, ratio of IC50 for cytotoxicity against human MCF-10A cells to IC50 for antiproliferative activity against human MDA-MB-231 cells; type: toxicity, cell-based; conditions: MCF-10A cells versus MDA-MB-231 cells, read-out: Ratio IC50
[9] = Cytotoxicity against human L02 cells assessed as inhibition in cell growth measured after 48 hrs by MTT assay; type: toxicity, cell-based
MDA-MB-231 [10] = test: Induction of apoptosis in human MDA-MB-231 cells assessed as late apoptotic cells at 20 nM incubated for 24 hrs by Annexin V-FITC/PI staining based flow cytometric analysis (reference value: 4.90%); type: functional
MDA-MB-231 [11] = test: Induction of apoptosis in human MDA-MB-231 cells assessed as increase in cytoplasmic CytC level at 5 to 20 nM incubated for 8 hrs by Western blotting analysis; type: functional, cell-based; conditions: dose 5-20 nM
MDA-MB-231 [12] = test: Induction of apoptosis in human MDA-MB-231 cells assessed as viable cells at 5 nM incubated for 24 hrs by Annexin V-FITC/PI staining based flow cytometric analysis (reference value: 90.1%); type: functional; conditions: read-out: Activity
[13] = Drug localization in mitochondria of human HCT-116 cells at 1 uM incubated for 1 hr measured after 40 mins by mito-tracker probe based confocal laser scanning microscopic analysis; type: ADME; conditions: hct-116, 1.667 h, time 100 min
MDA-MB-231 [14] = test: Antitumor activity against human MDA-MB-231 cells xenografted in BALB/C mouse assessed as increase in ROS level in tumor at 2.5 to 5 mg/kg, ip administered every 2 days measured after 3 weeks by DHE staining based analysis; type: functional, organism-based; conditions: dose 2.5-5 mg/kg
MDA-MB-231 [15] = test: Induction of cell cycle arrest in human MDA-MB-231 cells assessed as accumulation of cells at G2 phase at 20 nM measured after 24 hrs by PI staining by flow cytometric analysis (Rvb =18.1%); type: functional
[16] = Toxicity in BALB/C mouse xenografted with human MDA-MB-231 cells assessed as kidney damage at 2.5 to 5 mg/kg, ip administered every 2 days measured after 3 weeks by H and E staining based analysis; type: organism-based; conditions: in vivo, 504 h, dose 2.5-5 mg/kg
MDA-MB-231 [17] = test: Induction of apoptosis in human MDA-MB-231 cells assessed as increase in Bad level incubated for 8 hrs by Western blotting analysis; type: functional, cell-based; conditions: dose 5-20 nM
MDA-MB-231 [18] = test: Induction of apoptosis in human MDA-MB-231 cells assessed as increase in activation of caspase level incubated for 8 hrs by Western blotting analysis; type: functional, cell-based; conditions: dose 5-20 nM
MDA-MB-231 [19] = test: Induction of cell cycle arrest in human MDA-MB-231 cells assessed as accumulation of cells at S phase at 20 nM measured after 24 hrs by PI staining based flow cytometric analysis (Rvb =24.1%); type: functional
MDA-MB-231 [20] = test: Antitumor activity against human MDA-MB-231 cells xenografted in BALB/C mouse assessed as inhibition of tumor volume at 5 mg/kg, ip administered every 2 days measured after 3 weeks; type: functional; set-up: scale not given: the % may be the effect or the level left
MDA-MB-231 [21] = test: Induction of apoptosis in human MDA-MB-231 cells assessed as necrotic cells at 10 nM incubated for 24 hrs by Annexin V-FITC/PI staining based flow cytometric analysis (reference value: 0.11%); type: functional
MDA-MB-231 [22] = test: Induction of cell cycle arrest in human MDA-MB-231 cells assessed as accumulation of cells at G1 phase at 10 nM measured after 24 hrs by PI staining based flow cytometric analysis (Rvb =58%); type: functional
MDA-MB-231 [23] = test: Induction of mitochondrial membrane potential depolarization in human MDA-MB-231 cells assessed as decrease in red fluorescence at 5 to 20 nM incubated for 24 hrs by JC-1 staining based inverted fluorescent microscopic analysis; type: functional, cell-based; conditions: dose 5-20 nM
MDA-MB-231 [24] = test: Induction of apoptosis in human MDA-MB-231 cells assessed as increase in cleaved caspase-3 level incubated for 8 hrs by Western blotting analysis; type: functional, cell-based; conditions: dose 5-20 nM
MDA-MB-231 [25] = test: Antiproliferative activity against human MDA-MB-231 cells assessed as effect on NO level at 20 nM measured after 24 hrs in presence of PTIO by MTT assay; type: functional, cell-based
MDA-MB-231 [26] = test: Induction of cell cycle arrest in human MDA-MB-231 cells assessed as accumulation of cells at S phase at 5 nM measured after 24 hrs by PI staining by flow cytometric analysis (Rvb =24.1%); type: functional
MDA-MB-231 [27] = test: Induction of apoptosis in human MDA-MB-231 cells assessed as decrease in mitochondrial CytC level at 5 to 20 nM incubated for 8 hrs by Western blotting analysis; type: functional, cell-based; conditions: dose 5-20 nM
MDA-MB-231 [28] = test: Induction of apoptosis in human MDA-MB-231 cells assessed as increase in Bcl2 level incubated for 8 hrs by Western blotting analysis; type: functional, cell-based; conditions: dose 5-20 nM
MDA-MB-231 [29] = test: Induction of apoptosis in human MDA-MB-231 cells assessed as increase in Bax level incubated for 24 hrs by Western blotting analysis; type: functional, cell-based; conditions: dose 5-20 nM
MDA-MB-231 [30] = test: Induction of apoptosis in human MDA-MB-231 cells assessed as viable cells at 10 nM incubated for 24 hrs by Annexin V-FITC/PI staining based flow cytometric analysis (reference value: 90.1%); type: functional; conditions: read-out: Activity
[31] = Cytotoxicity against human MCF-10A cells assessed as inhibition in cell growth measured after 48 hrs by MTT assay; type: toxicity, cell-based
MDA-MB-231 [32] = test: Induction of apoptosis in human MDA-MB-231 cells assessed as late apoptotic cells at 5 nM incubated for 24 hrs by Annexin V-FITC/PI staining based flow cytometric analysis (reference value: 4.90%); type: functional
MDA-MB-231 [33] = test: Induction of cell cycle arrest in human MDA-MB-231 cells assessed as accumulation of cells at G1 phase at 5 nM measured after 24 hrs by PI staining based flow cytometric analysis (Rvb =58%); type: functional

For CCN(CC)c1ccc2cc(C(=O)OCCCCCOc3cc4ccc(=O)oc4cc3OCCCCCCOc3no[n+]([O-])c3S(=O)(=O)c3ccccc3)c(=O)oc2c1, the Activity (MDA-MB-231 [1]) was 22.97%, the Activity (MDA-MB-231 [2]) was 12.8% and the Activity [3] was “Non-Toxic”. The Activity (MDA-MB-231 [4]) was 13.8%, the Activity [5] was “Non-Toxic” and the Activity (MDA-MB-231 [6]) was 57.9%. For the same molecule, the pIC50 (MDA-MB-231 [7]) was 8.10, the selectivity ratio [8] was > 6250 and the IC50 at 48 h [9] was 11.9 µM. The Activity (MDA-MB-231 [10]) was 39%, the Activity (MDA-MB-231 [11]) was “Active” and the viability at 0.005 µM (MDA-MB-231 [12]) was 67.1%. For the same molecule, the Drug uptake [13] was “Active”, the Activity (MDA-MB-231 [14]) was “Active” and the Activity (MDA-MB-231 [15]) was 21.4%. The Activity [16] was “Non-Toxic”, the Activity (MDA-MB-231 [17]) was “Dose-Dependent Effect” and the Activity (MDA-MB-231 [18]) was “Dose-Dependent Effect”. For the same molecule, the Activity (MDA-MB-231 [19]) was 21%, the Activity (MDA-MB-231 [20]) was 63.5% and the Activity (MDA-MB-231 [21]) was 0.83%. For the same molecule, the Activity (MDA-MB-231 [22]) was 56%, the Activity (MDA-MB-231 [23]) was “Active” and the Activity (MDA-MB-231 [24]) was “Dose-Dependent Effect”. The Activity (MDA-MB-231 [25]) was “inactive”, the Activity (MDA-MB-231 [26]) was 29.3% and the Activity (MDA-MB-231 [27]) was “Active”. For the same molecule, the Activity (MDA-MB-231 [28]) was “Dose-Dependent Effect”, the Activity (MDA-MB-231 [29]) was “Dose-Dependent Effect” and the viability at 0.01 µM (MDA-MB-231 [30]) was 47.3%. For the same molecule, the IC50 at 48 h [31] was > 50 µM, the Activity (MDA-MB-231 [32]) was 20.4% and the Activity (MDA-MB-231 [33]) was 55.3%.
